Assay results: article PMC6155227 (Molecules : A Journal of Synthetic Chemistry and Natural …, 2017)

Legend:
[1] = tested on: H5N1(A/Vietnam/1203/2004) strain; test: microbe, parasite or virus in culture; assay type: cell-based, influenza virus A/Vietnam/1203/2004 (H5N1); details: Influenza A virus, H5N1, MDCK
[2] = tested on: avian influenza virus; details: mouse, in vivo; cited from earlier work
[3] = tested on: MDCK cells; details: dog
[4] = tested on: porcine reproductive and respiratory syndrome virus (PRRSV); details: cited from earlier work

CCCC(=O)c1c(O)c(CC2=C(O)C(C)(C)C(O)=C(C(C)=O)C2=O)c(O)c(Cc2c(O)c(CC3=C(O)C(C)(C)C(O)=C(C(C)=O)C3=O)c(O)c(C(=O)CCC)c2O)c1O [Dryocrassin ABBA, dryocrassin ABBA]
EC50 ([1]; 72 h, read-out: EC50 anti-influenza virus activity): 16.6 µM
protection of infected mice [2]: protect mice infected with avian influenza virus
50% toxicity concentration (TC50) [3]: greater than 400 μM

CCCC(=O)c1c(O)c(CC2=C(O)C(C)(C)C(O)=C(C(C)=O)C2=O)c(O)c(CC2=C(O)C(C)(C)C(O)=C(C(C)=O)C2=O)c1O [Filixic acid ABA, filixic acid ABA]
inhibition at 100 µM ([1]; read-out: inhibition rate): < 50%
maximal non-cytotoxic concentration [3]: 100 µM

CCCC(=O)c1c(O)c(C)c(O)c(CC2=C(O)C(C)(C)C(O)=C(C(C)=O)C2=O)c1O [Flavaspidic acid AB, flavaspidic acid AB]
virus replication [4]: inhibit replication
